Measured values: BigSolDB 2.1

O=C1C=CC(=O)N1c1cc(F)c(Br)c(F)c1
solubility (mole fraction) (in THF, 285 K): 0.0148
solubility (mole fraction) (in THF, 288.45 K): 0.0162
solubility (mole fraction) (in THF, 291.55 K): 0.0176
solubility (mole fraction) (in THF, 294.25 K): 0.0185
solubility (mole fraction) (in THF, 297.55 K): 0.02
solubility (mole fraction) (in THF, 302.8 K): 0.0228
solubility (mole fraction) (in THF, 306.65 K): 0.0249
solubility (mole fraction) (in THF, 310.8 K): 0.0275
solubility (mole fraction) (in THF, 315 K): 0.0303
solubility (mole fraction) (in THF, 318.45 K): 0.0329
solubility (mole fraction) (in THF, 321.45 K): 0.0355
solubility (mole fraction) (in THF, 324.65 K): 0.0383
solubility (mole fraction) (in THF, 327.65 K): 0.0409
solubility (mole fraction) (in THF, 330.35 K): 0.0437
solubility (mole fraction) (in THF, 333.65 K): 0.047
solubility (mole fraction) (in THF, 336.25 K): 0.0497
solubility (mole fraction) (in acetone, 287.65 K): 0.0071
solubility (mole fraction) (in acetone, 291.85 K): 0.0081
solubility (mole fraction) (in acetone, 295.55 K): 0.0092
solubility (mole fraction) (in acetone, 298.35 K): 0.01
solubility (mole fraction) (in acetone, 301.25 K): 0.0109
solubility (mole fraction) (in acetone, 304.55 K): 0.012
solubility (mole fraction) (in acetone, 307.6 K): 0.0131
solubility (mole fraction) (in acetone, 309.45 K): 0.0139
solubility (mole fraction) (in acetone, 311.95 K): 0.0152
solubility (mole fraction) (in acetone, 313.95 K): 0.0159
solubility (mole fraction) (in acetone, 316.55 K): 0.0174
solubility (mole fraction) (in acetone, 319.55 K): 0.019
solubility (mole fraction) (in acetone, 321.45 K): 0.0202
solubility (mole fraction) (in acetone, 323.35 K): 0.0214
solubility (mole fraction) (in acetone, 325.15 K): 0.0225
solubility (mole fraction) (in acetonitrile, 291.95 K): 0.0028
solubility (mole fraction) (in acetonitrile, 296.65 K): 0.0033
solubility (mole fraction) (in acetonitrile, 299.25 K): 0.0037
solubility (mole fraction) (in acetonitrile, 302.45 K): 0.004
solubility (mole fraction) (in acetonitrile, 304.85 K): 0.0044
solubility (mole fraction) (in acetonitrile, 307.15 K): 0.0049
solubility (mole fraction) (in acetonitrile, 311.55 K): 0.0057
solubility (mole fraction) (in acetonitrile, 316.95 K): 0.007
solubility (mole fraction) (in acetonitrile, 320.15 K): 0.0078
solubility (mole fraction) (in acetonitrile, 325.45 K): 0.0095
solubility (mole fraction) (in acetonitrile, 328.55 K): 0.0107
solubility (mole fraction) (in acetonitrile, 332.05 K): 0.0119
solubility (mole fraction) (in acetonitrile, 338.65 K): 0.0146
solubility (mole fraction) (in acetonitrile, 341.65 K): 0.0165
solubility (mole fraction) (in acetonitrile, 347.25 K): 0.0198
solubility (mole fraction) (in acetonitrile, 350.15 K): 0.0217
solubility (mole fraction) (in chloroform, 289.25 K): 0.0055
solubility (mole fraction) (in chloroform, 294.85 K): 0.0066
solubility (mole fraction) (in chloroform, 296.65 K): 0.0069
solubility (mole fraction) (in chloroform, 300.85 K): 0.0078
solubility (mole fraction) (in chloroform, 302.75 K): 0.0082
solubility (mole fraction) (in chloroform, 305.65 K): 0.0092
solubility (mole fraction) (in chloroform, 307.45 K): 0.0096
solubility (mole fraction) (in chloroform, 309.55 K): 0.0101
solubility (mole fraction) (in chloroform, 311.65 K): 0.0108
solubility (mole fraction) (in chloroform, 315.35 K): 0.012
solubility (mole fraction) (in chloroform, 318.65 K): 0.0132
solubility (mole fraction) (in chloroform, 322.15 K): 0.0146
solubility (mole fraction) (in chloroform, 324.65 K): 0.0157
solubility (mole fraction) (in chloroform, 326.45 K): 0.0166
solubility (mole fraction) (in chloroform, 328.35 K): 0.0176
solubility (mole fraction) (in chloroform, 330.65 K): 0.0188
solubility (mole fraction) (in ethanol, 288.65 K): 0.0003
solubility (mole fraction) (in ethanol, 293.59 K): 0.0003
solubility (mole fraction) (in ethanol, 299.85 K): 0.0004
solubility (mole fraction) (in ethanol, 305.72 K): 0.0006
solubility (mole fraction) (in ethanol, 311.15 K): 0.0008
solubility (mole fraction) (in ethanol, 318.15 K): 0.0011
solubility (mole fraction) (in ethanol, 324.35 K): 0.0014
solubility (mole fraction) (in ethanol, 327.85 K): 0.0016
solubility (mole fraction) (in ethanol, 332.95 K): 0.002
solubility (mole fraction) (in ethanol, 336.05 K): 0.0023
solubility (mole fraction) (in ethanol, 339.65 K): 0.0027
solubility (mole fraction) (in ethanol, 341.85 K): 0.003
solubility (mole fraction) (in ethanol, 344.15 K): 0.0033
solubility (mole fraction) (in ethanol, 346.15 K): 0.0036
solubility (mole fraction) (in ethanol, 347.75 K): 0.0039
solubility (mole fraction) (in pyridine, 285.55 K): 0.0116
solubility (mole fraction) (in pyridine, 289.66 K): 0.0129
solubility (mole fraction) (in pyridine, 293.95 K): 0.0144
solubility (mole fraction) (in pyridine, 297.15 K): 0.0154
solubility (mole fraction) (in pyridine, 300.85 K): 0.0169
solubility (mole fraction) (in pyridine, 304.65 K): 0.0186
solubility (mole fraction) (in pyridine, 310.05 K): 0.0214
solubility (mole fraction) (in pyridine, 315.65 K): 0.0246
solubility (mole fraction) (in pyridine, 318.65 K): 0.0265
solubility (mole fraction) (in pyridine, 322.55 K): 0.0291
solubility (mole fraction) (in pyridine, 328.45 K): 0.0341
solubility (mole fraction) (in pyridine, 334.15 K): 0.0394
solubility (mole fraction) (in pyridine, 337.95 K): 0.0432
solubility (mole fraction) (in pyridine, 340.65 K): 0.0462
solubility (mole fraction) (in pyridine, 344.85 K): 0.0514
solubility (mole fraction) (in pyridine, 346.35 K): 0.0533
